According to patent US6500842B1, “8-hydroxy-7-substituted quinolines as anti-viral agents” (Pharmacia & Upjohn Company, priority 1996, dated 2002):
Read-outs that look alike come from different tables or passages of the source.

Assays:
CMV polymerase = biological target: T1, CMV polymerase (Human cytomegalovirus, UniProt P08546); assay: modified version of the HCMV polymerase assay (100% DMSO dilution, DTT, different enzyme lot); assay type: biochemical; conditions: for IC50: read-out: IC50
T1 construct: made in house; host or cells: recombinant baculovirus-infected SF-9 cells
Experimental: The HCMV polymerase assay is performed using a scintillation proximity assay (SPA) as described in several references, such as N. D. Cook, et al., Pharmaceutical Manufacturing International, pages 49-53 (1992); K. Takeuchi, Laboratory Practice, September issue (1992); U.S. Pat. No. 4,568,649 (1986); which are incorporated by reference herein. Reactions are performed in 96-well plates. The assay is conducted in 100 μl volume with 5.4 mM HEPES (pH 7.5), 11.7 mM KCl, 4.5 mM MgCl2, 0.36 mg/ml BSA, and 90 nM ^3H-dTTP. Assays are run with and without CHAPS, (3-[(3-Cholamidopropyl)-dimethylammonio]-1-propane-sulfonate) at a final concentration of 2 mM. HCMV is diluted in enzyme dilution buffer containing 50% glycerol, 250 mM NaCl, 10 mM HEPES (pH 7.5), 100 pg/ml BSA, and 0.01% sodium azide. The HCMV polymerase, which is expressed in recombinant baculovirus-infected SF-9 cells and purified according to literature procedures, is added at 10% (or 10 μl) of the final reaction volume, i.e., 100 μl. Compounds are diluted in 50% DMSO and 10 μl are added to each well. Control wells contain an equivalent concentration of DMSO. Unless noted otherwise, reactions are initiated via the addition of 6 nM biotinylated poly(dA)-oligo(dT) template/primer to reaction mixtures containing the enzyme, substrate, and compounds of interest. Plates are incubated in a 25° C. of 37° C. H2O bath and terminated via the addition of 40 μl/reaction of 0.5 M EDTA (pH 8) per well. Reactions are terminated within the time-frame during which substrate incorporation is linear and varied depending upon the enzyme and conditions used, i.e., 30 min. for HCMV polymerase. Ten μl of streptavidin-SPA beads (20 mg/ml in PBS/10% glycerol) are added following termination of the reaction. Plates are incubated 10 min. at 37° C., then equilibrated to room temperature, and counted on a Packard Topcount. Linear regressions are performed and IC50's are calculated using computer software. Results of the testing of compounds of the present invention in this assay are shown in Tables 1, 2, 5, 9, 10, 11, 13 (except for the last compound which was tested under modified conditions) and 14 below.
A modified version of the above HCMV polymerase assay is performed as described above, but with the following changes: Compounds are diluted in 100% DMSO until final dilution into assay buffer. In the previous assay, compounds are diluted in 50% DMSO. 4.5 mM dithiotherotol (DTT) is added to the polymerase buffer.

T1 sequence (P08546 whole entry): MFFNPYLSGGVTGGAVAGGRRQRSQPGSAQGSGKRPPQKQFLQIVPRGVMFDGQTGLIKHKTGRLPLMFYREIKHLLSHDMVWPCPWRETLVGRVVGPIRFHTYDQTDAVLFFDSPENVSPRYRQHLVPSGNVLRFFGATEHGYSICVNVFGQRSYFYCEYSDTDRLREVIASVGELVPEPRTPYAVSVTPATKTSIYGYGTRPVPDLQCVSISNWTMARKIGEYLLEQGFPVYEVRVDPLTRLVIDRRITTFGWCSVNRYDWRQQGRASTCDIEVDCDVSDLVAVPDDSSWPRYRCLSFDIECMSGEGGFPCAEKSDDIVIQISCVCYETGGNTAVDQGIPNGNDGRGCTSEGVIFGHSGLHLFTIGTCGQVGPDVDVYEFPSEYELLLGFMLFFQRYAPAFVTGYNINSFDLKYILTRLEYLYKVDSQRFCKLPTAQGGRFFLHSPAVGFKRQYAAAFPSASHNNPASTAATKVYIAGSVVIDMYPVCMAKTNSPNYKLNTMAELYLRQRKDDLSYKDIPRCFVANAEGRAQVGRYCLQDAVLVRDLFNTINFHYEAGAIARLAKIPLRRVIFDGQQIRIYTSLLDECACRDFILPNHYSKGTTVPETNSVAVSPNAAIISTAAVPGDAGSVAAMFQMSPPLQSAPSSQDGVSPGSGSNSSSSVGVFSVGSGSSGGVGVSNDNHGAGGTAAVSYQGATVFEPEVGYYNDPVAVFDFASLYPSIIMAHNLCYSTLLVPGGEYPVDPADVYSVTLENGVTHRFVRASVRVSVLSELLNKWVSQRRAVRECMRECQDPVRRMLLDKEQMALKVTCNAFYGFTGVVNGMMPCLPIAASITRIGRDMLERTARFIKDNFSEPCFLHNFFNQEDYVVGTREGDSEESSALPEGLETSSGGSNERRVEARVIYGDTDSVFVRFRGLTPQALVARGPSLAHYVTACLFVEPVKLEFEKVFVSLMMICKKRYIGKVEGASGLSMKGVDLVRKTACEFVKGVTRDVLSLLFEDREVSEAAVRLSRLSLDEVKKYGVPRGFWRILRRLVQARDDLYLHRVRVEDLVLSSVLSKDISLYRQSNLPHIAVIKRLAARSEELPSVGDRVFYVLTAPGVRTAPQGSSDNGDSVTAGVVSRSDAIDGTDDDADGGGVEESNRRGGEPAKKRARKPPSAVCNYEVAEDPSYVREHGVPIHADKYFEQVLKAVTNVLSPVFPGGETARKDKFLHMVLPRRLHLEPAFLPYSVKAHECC

| inhibition at 6.25 µM (CMV polymerase; Concentration 6.25 uM, Table 3) | inhibition at 12.5 µM (CMV polymerase; Concentration 12.5 uM, Table 3) | inhibition at 50 µM (CMV polymerase; Concentration 50 uM, Table 3) | inhibition at 100 µM (CMV polymerase; Concentration 100 uM, Table 3) | IC50 (CMV polymerase; Table 3) | melting point | inhibition at 25 µM (CMV polymerase; Concentration 25 uM, Table 3) | inhibition at 6.25 µM (CMV polymerase; Concentration 6.25 μM, Table 6) | inhibition at 25 µM (CMV polymerase; Concentration 25 μM, Table 6) | inhibition at 50 µM (CMV polymerase; Concentration 50 μM, Table 6) | inhibition at 100 µM (CMV polymerase; Concentration 100 μM, Table 6) | SMILES | inhibition at 3.13 µM (CMV polymerase; Concentration 3.13 μM, Table 6) | inhibition at 12.5 µM (CMV polymerase; Concentration 12.5 μM, Table 6) | inhibition at 200 µM (CMV polymerase; Concentration 200 μM, Table 6) | IC50 (CMV polymerase; Table 6) | also measured |
| --- | --- | --- | --- | --- | --- | --- | --- | --- | --- | --- | --- | --- | --- | --- | --- | --- |
| 41% | 44% | 89% | 96% | 10 µM | 106 to 107 °C |  |  |  |  |  | Cc1ccc2c(Cl)cc(S(=O)(=O)NCCOc3ccccc3)c(O)c2n1 [Example 35, 5-Chloro-8-hydroxy-2-methyl-N-(2-phenoxyethyl)-7-quinoline-sulfonamide] |  |  |  |  | inhibition at 3.13 µM (CMV polymerase; Concentration 3.13 uM, Table 3): 31% |
| 36% | 47% | 80% | 94% | 13.7 µM | 83 to 87 °C | 53% |  |  |  |  | Cc1ccc2c(Cl)cc(S(=O)(=O)N[C@@H](C)c3ccccc3)c(O)c2n1 [Example 40, (S)-5-Chloro-8-hydroxy-2-methyl-N-(1-phenylethyl)-7-quinolinesulfonamide] |  |  |  |  | inhibition at 3.13 µM (CMV polymerase; Concentration 3.13 uM, Table 3): 22% |
| 36% | 58% | 96% | 97% | 10.5 µM | 115 to 119 °C | 62% |  |  |  |  | Cc1ccc2c(Cl)cc(S(=O)(=O)NC(c3ccccc3)c3ccccc3)c(O)c2n1 [Example 38, 5-Chloro-N-(diphenylmethyl)-8-hydroxy-2-methyl-7-quinoline-sulfonamide] |  |  |  |  |  |
| 3% | 12% | 50% | 55% | 72.3 µM | 194 to 196 °C | 21% |  |  |  |  | Cc1ccc2c(Cl)cc(S(=O)(=O)NCCCn3ccnc3)c(O)c2n1 [Example 37, 5-Chloro-8-hydroxy-N-[3-(1H-imidazol-1-yl)propyl]-2-methyl-7-quinolinesulfonamide] |  |  |  |  |  |
|  |  |  |  |  | 187 to 193 °C |  | 34% | 71% | 74% | 92% | O=S(=O)(NCCSc1ccccc1)c1cc(Cl)c2ccc(/C=C/c3ccccc3)nc2c1O [Example 63, (E)-5-Chloro-8-hydroxy-2-(2-phenylethenyl)-N-[2-(phenylthio)ethyl]-7-quinolinesulfonamide] | 29% | 49% |  | 11.4 µM |  |
| 21% | 57% | 54% | 97% | 17.2 µM | 131 to 134 °C | 63% |  |  |  |  | Cc1ccc2c(Cl)cc(S(=O)(=O)NCCCc3ccccc3)c(O)c2n1 [Example 34, 5-Chloro-8-hydroxy-2-methyl-N-(3-phenylpropyl)-7-quinoline-sulfonamide] |  |  |  |  |  |
|  |  |  |  |  | 269 to 272 °C |  | 41% | 57% | 64% | 86% | Cc1ccc2c(Cl)cc(S(=O)(=O)NCCc3ccc(NS(=O)(=O)c4ccccc4)cc3)c(O)c2n1 [Example 66, 5-Chloro-8-hydroxy-2-methyl-N-[2-[4-[(phenylsulfonyl)-amino]phenyl]ethyl]-7-quinolinesulfonamide] |  |  | 89% |  | % Inhibition (CMV polymerase; Concentration 6.25 μM, Table 6, 6.25 µM): 30%; % Inhibition (CMV polymerase; Concentration 25 μM, Table 6, 25 µM): 77%; % Inhibition (CMV polymerase; Concentration 50 μM, Table 6, 50 µM): 71%; % Inhibition (CMV polymerase; Concentration 100 μM, Table 6, 100 µM): 91%; % Inhibition (CMV polymerase; Concentration 200 μM, Table 6, 200 µM): 88% |
|  |  |  |  |  | 147 to 152 °C (dec.) |  | -8% | -21% | -23% | -23% | Cc1ccc2c(Cl)cc(S(=O)(=O)NCCc3ccc(NS(=O)(=O)c4c(C)noc4C)cc3)c(O)c2n1 [Example 65, 5-Chloro-8-hydroxy-2-methyl-N-[2-[4-[[(3,5-dimethyl-4-isoxazolyl)sulfonyl]amino]phenyl]ethyl]-7-quinoline-sulfonamide] | -8% | -13% | -8% | > 200 µM |  |
|  |  |  |  |  | 131 to 133 °C |  | 19% | 32% | 51% | 55% | Cc1ccc2c(Cl)cc(S(=O)(=O)NCCc3ccc(Cl)cc3)c(O)c2n1 [Example 60, 5-Chloro-N-[2-(4-chlorophenyl)ethyl]-8-hydroxy-2-methyl-7-quinolinesulfonamide] | 30% | 31% | 70% | 57.4 µM |  |
| 28% | 43% | 79% | 71% | 21.6 µM | 84 to 88 °C | 41% |  |  |  |  | Cc1ccc2c(Cl)cc(S(=O)(=O)N[C@H](C)c3ccccc3)c(O)c2n1 [Example 39, (R)-5-Chloro-8-hydroxy-2-methyl-N-(1-phenylethyl)-7-quinolinesulfonamide] |  |  |  |  | inhibition at 3.13 µM (CMV polymerase; Concentration 3.13 uM, Table 3): 16%; inhibition at 200 µM (CMV polymerase; Concentration 200 uM, Table 3): 90% |

| SMILES | inhibition at 6.25 µM (CMV polymerase; Concentration 6.25 uM, Table 3) | inhibition at 12.5 µM (CMV polymerase; Concentration 12.5 uM, Table 3) | inhibition at 50 µM (CMV polymerase; Concentration 50 uM, Table 3) | inhibition at 100 µM (CMV polymerase; Concentration 100 uM, Table 3) | IC50 (CMV polymerase; Table 3) | melting point | inhibition at 25 µM (CMV polymerase; Concentration 25 uM, Table 3) | inhibition at 6.25 µM (CMV polymerase; Concentration 6.25 μM, Table 6) | inhibition at 25 µM (CMV polymerase; Concentration 25 μM, Table 6) | inhibition at 50 µM (CMV polymerase; Concentration 50 μM, Table 6) | inhibition at 100 µM (CMV polymerase; Concentration 100 μM, Table 6) | inhibition at 3.13 µM (CMV polymerase; Concentration 3.13 μM, Table 6) | inhibition at 12.5 µM (CMV polymerase; Concentration 12.5 μM, Table 6) | inhibition at 200 µM (CMV polymerase; Concentration 200 μM, Table 6) | IC50 (CMV polymerase; Table 6) | also measured |
| --- | --- | --- | --- | --- | --- | --- | --- | --- | --- | --- | --- | --- | --- | --- | --- | --- |
| Cc1ccc2c(Cl)cc(S(=O)(=O)NCCCN3CCOCC3)c(O)c2n1 [Example 36, 5-Chloro-8-hydroxy-2-methyl-N-[3-(4-morpholinyl)propyl]-7-quinoline-sulfonamide] | -3% | 6% | 15% | 3% | > 200 µM | 245 to 257 °C | 0% |  |  |  |  |  |  |  |  | inhibition at 3.13 µM (CMV polymerase; Concentration 3.13 uM, Table 3): -1%; inhibition at 200 µM (CMV polymerase; Concentration 200 uM, Table 3): 19% |
| Cc1ccc2c(Cl)cc(S(=O)(=O)NCCCCc3ccccc3)c(O)c2n1 [Example 61, 5-Chloro-8-hydroxy-2-methyl-N-(4-phenylbutyl)-7-quinoline-sulfonamide] |  |  |  |  |  | 84 to 86 °C |  | 15% | 30% | 30% | 38% | 13% | 23% | 51% | > 200 µM |  |
| Cc1ccc2c(Cl)cc(S(=O)(=O)NCc3ccccn3)c(O)c2n1 [Example 59, 5-Chloro-8-hydroxy-2-methyl-N-(2-pyridinylmethyl)-7-quinolinesulfonamide] |  |  |  |  |  | 185 to 186 °C |  | -6% | 0% | 14% | 31% | -7% | -3% | 43% | > 200 µM |  |
| Cc1ccc2c(Cl)cc(S(=O)(=O)NCCc3ccccn3)c(O)c2n1 [Example 62, 5-Chloro-8-hydroxy-2-methyl-N-[2-(2-pyridinyl)ethyl]-7-quinolinesulfonamide] |  |  |  |  |  | 153 to 155 °C |  | 3% | 10% | 14% | 33% | 1% | 6% | 42% | > 200 µM |  |
